Results published in PMC8597046, “Use of Mixture Dosing and Nonlinear Mixed Effect Modeling of Eight Environmental Contaminants in Rabbits to Improve Extrapolation Value of Toxicokinetic Data” (Environmental Health Perspectives, 2021).

How the values were obtained:
[1] = Nonlinear mixed effect (NLME) compartmental modeling of merged IV and oral serum concentrations; conditions: for AUCIV: dosing time to infinity after intravenous dosing; for AUCVO: dosing time to infinity after oral dosing; for Volume(s) of the peripheral compartment: for PFOA first peripheral compartment; for half-life: terminal
From the text: A nonlinear mixed effect (NLME) modeling approach was used to analyze simultaneously all data obtained from the different rabbits after both IV and oral administrations and to provide robust estimates of the typical TK parameters.
The primary parameters of the model, namely the volume of distribution of the central compartment (V1), the first-order rate constants ( K10 , K12 , K21 , and Kabs plus K13 , K31 for PFOA) and the bioavailability (F) and their associated precisions [standard error (SE)] were estimated by minimizing an objective function value (OFV) expressed as minus twice the log of the likelihood estimation ( −2LL ). […] Marginal likelihood was approximated by using the Laplacian engine by default and, when this engine was unable to determine the SE of the estimate, the Quasi-Random Parametric Expectation Maximization (QRPEM) was selected.
Between subject variability (BSV) of the parameters was measured using the exponential model θparameter_i=θtv_parameter×exp (ηi), where θparameter_i is the parameter estimated for the ith individual, θtv_parameter is the typical population value of the parameter, and ηi is the deviation associated with the ith individual from the corresponding value of the parameter at the population level.
The distribution of ηi was assumed to be normal with a mean of 0 and a variance ω² . BSV was reported as a coefficient of variation (CV) in the original scale CV(%)=100× exp (ω^2)−1 .
The residual variance was modeled using a combined additive and proportional error model Cobsij=Cpredij(1 + ε1ij) + ε2ij, where Cobsij and Cpredij are respectively the jth observed and predicted concentrations for the ith individual, and ε1ij and ε2ij are the multiplicative and additive residual errors.
Secondary parameters were calculated from the population primary parameters.
The clearance values (CL) were estimated using Equation 5: (5) CL=K10×V1, where V1 is the volume of the central compartment and K10 is the elimination rate constant from the central compartment.
The volume of the peripheral compartment (V2) was estimated with Equation 6: (6) V2=V1×(K12/K21), where K12 and K21 are the distribution rate constants between the central and the peripheral compartments.
The clearance of distribution (Q) was estimated using Equation 7: (7) Q=K12×V1, with […] and K12 as defined above.
The volume of distribution associated with the terminal phase was estimated with Equation 10: (10) VZ=CL/λZ, with λZ as defined above.
The AUC was computed as a secondary parameter using Equation 11: (11) AUC=Dose/CL.
The terminal half-life was estimated with Equation 1, as previously described.

[2] = TK assay, intravenous mixture dosing: serum concentrations and noncompartmental analysis (sparse data); conditions: for CL / MRT / VSS / VZ / AUC0−inf / Cmax / half-life: IV mixture dosing, NCA, n=12; for Serum concentration: IV; for AUC0−inf / Cmax: serum; for Cmax: doses in Table 2 r3, BPSG after BPS dosing; for half-life: terminal
Procedure: The experiment was carried out on thirty 10-wk old female New Zealand white rabbits (INRA 1777 line) weighing 2.37±0.14kg . […] Blood samples were taken at the designated time points post IV and oral administration: 15 min, 30 min, 1 h, 2 h, 4 h, 8 h, 12 h, 24 h, 3 d, 7 d, and 28 d from groups of 3 or 6 rabbits at each sampling time. Each rabbit was sampled 3 times and 3 rabbits were sampled at each sampling time, except at 30 min post administration, when 6 samples were collected to provide a sufficient blood volume for assaying the compounds. The doses and assay time points were selected to allow the calculation of TK parameters (Table 1) based on preliminary TK data. Residual concentrations of the compounds, and their possible evolution over time, were determined by sampling six entirely untreated rabbits during the TK study on the day of drug administrations, then 14 d and 28 d later.
The volume administered was adjusted to the animal’s body weight (BW) recorded the day before.
Intravenous administrations were performed via an indwelling catheter (22G Terumo, 0.9×25mm ) just after its insertion into an ear vein. […] For oral administrations, the mixture of all compounds ( 4mL/kg ) was deposited directly in the mouth of rabbits using a catheter (22G BD Insyte 22G, 0.9×25mm ). Prior to the study, the rabbits had been trained to gradually swallow water and then corn oil.
Blood samples were collected from the auricular artery using a 20 G needle ( 0.9×25mm ) and a dry tube. The first two blood samples were 8–10mL in volume, whereas a large volume (about 20mL ) was obtained antemortem immediately after electrical stunning (95LX rabbit stunner; Burdis), followed by exsanguination.
Serum concentration-time profiles of the different compounds were first analyzed using a noncompartmental approach (NCA) involving a sparse data option. Sparse data methodology consists of calculating TK parameters based on the mean profile of all the subjects in the dataset and is appropriate when a rich data series cannot be obtained, as in the present experiment ([FDA 1999]). The area under the concentration time curve ( AUC0−tlast ) and the area under the first moment curve ( AUMC0−tlast ) from dosing time ( t=0 ) to the time of the last measurable concentration were calculated using the linear trapezoidal rule after IV and oral dosing. The area under the serum concentration time curve from dosing time to infinity ( AUC0−inf ) was obtained by adding to AUC0−tlast the area extrapolated from the time of the last measurable concentration to infinity by dividing the last quantifiable serum concentration by the slope of the terminal phase ( λZ ), as estimated by linear regression using the best fit option of Phoenix®.
The clearance (CL) and apparent clearance (CL_F) were respectively estimated after IV and oral administrations by dividing the administered dose by the AUC0−inf calculated for each analyte.
The terminal half-life (HL) was estimated with Equation 1: (1) HL=0.69315/λZ where λz is the slope of the terminal phase.
The mean residence time (MRT) was estimated using Equation 3: (3) MRT=AUMCiv0−tlast /AUCiv0−tlast , where AUCMiv0−tlast and AUCiv0−tlast are the values of AUMC0−tlast and AUC0−tlast obtained after IV dosing.
The steady-state volume of distribution ( VSS ) was estimated using Equation 4: (4) VSS=CL×MRT, with CL and MRT as defined above.

[3] = population secondary parameter, MEHP after oral DEHP
[4] = population primary parameter, typical value, mean
[5] = population secondary parameter, mean

CCCCC(CC)COC(=O)c1ccccc1C(=O)O (stereo not drawn) [MEHP, mono(2-ethylhexyl)phthalate]
F value for MEHP (fraction of the DEHP dose metabolized into MEHP) ([1]; MEHP IV vs DEHP oral, NLME model): 87% | AUCIV ([1]; population secondary parameter): 9.0 µM·h | AUCVO [1, 3]: 53 µmol·h/L | tvK10 (elimination rate constant from the central compartment) [1, 4]: 1.411 h⁻¹ | tvK12 (distribution rate constant) [1, 4]: 0.285 h⁻¹ | tvVc (volume of the central compartment) [1, 4]: 0.329 L/kg | Clearance [1, 5]: 7.83 mL/min/kg | MRT [1, 5]: 0.342 days | Volume(s) of the peripheral compartment [1, 5]: 3.5 L/kg | MRT ([1]; population secondary parameter, mean, listed as mono-2-ethylhexyl phthalate): a few hours | half-life [1, 5]: 1.29 days | CL [2]: 7.15 mL/min/kg | MRT [2]: 0.679 days | VSS [2]: 7.00 L/kg | VZ [2]: 7.85 L/kg | Serum concentration ([2]; rabbit 1, 0.30 h): 11380 nM | Serum concentration ([2]; rabbit 1, 4.38 h): 72 nM | Serum concentration ([2]; rabbit 1, 24.03 h): < 18 nM | Serum concentration ([2]; rabbit 2, 0.28 h): 14440 nM | Serum concentration ([2]; rabbit 2, 4.05 h): 39 nM | Serum concentration ([2]; rabbit 3, 0.35 h): 3040 nM | Serum concentration ([2]; rabbit 3, 4.05 h): 59 nM | Serum concentration ([2]; rabbit 4, 0.62 h): 4130 nM | Serum concentration ([2]; rabbit 4, 8.33 h): 27.5 nM | Serum concentration ([2]; rabbit 4, 72.00 h): < 18 nM | Serum concentration ([2]; rabbit 5, 0.75 h): 3760 nM | Serum concentration ([2]; rabbit 5, 8.62 h): 42 nM | Serum concentration ([2]; rabbit 5, 72.03 h): < 18 nM | Serum concentration ([2]; rabbit 6, 0.57 h): 7060 nM | Serum concentration ([2]; rabbit 6, 7.98 h): 21 nM | Serum concentration ([2]; rabbit 6, 71.97 h): 36 nM | Serum concentration ([2]; rabbit 7, 1.13 h): 1210 nM | Serum concentration ([2]; rabbit 7, 11.98 h): < 18 nM | Serum concentration ([2]; rabbit 8, 1.12 h): 820 nM | Serum concentration ([2]; rabbit 8, 12.02 h): < 18 nM | Serum concentration ([2]; rabbit 9, 1.03 h): 720 nM | Serum concentration ([2]; rabbit 9, 11.97 h): < 18 nM | Serum concentration ([2]; rabbit 11, 2.08 h): 480 nM | Serum concentration ([2]; rabbit 12, 2.08 h): 450 nM | AUC0−inf [2]: 9.73 µM·h | Cmax [2]: 14400 nM | half-life [2]: 0.529 days

O=S(=O)(O)C(F)(F)C(F)(F)C(F)(F)C(F)(F)C(F)(F)C(F)(F)C(F)(F)C(F)(F)F [nPFOS, linear isomer of perfluorooctane sulfonate]
MRT ([1]; NLME model): 47.6 days | Oral bioavailability (F) ([1]; NLME model): total | Terminal HL ([1]; NLME model): 33 days | AUCIV ([1]; population secondary parameter): 355 µM·h | AUCVO [1, 3]: 1,246 μmol×h/L | AUCVO/dose ([1]; oral dosing): 3,115 μmol×h/L per μmol/kg BW | bioavailability ([1]; oral, population secondary parameter, mean, as fraction): 1 | tvK10 (elimination rate constant from the central compartment) [1, 4]: 0.00111 h⁻¹ | tvK12 (distribution rate constant) [1, 4]: 0.153 h⁻¹ | tvK21 (distribution rate constant) [1, 4]: 0.581 h⁻¹ | tvVc (volume of the central compartment) [1, 4]: 0.290 L/kg | tvKabs (rate constant of absorption) ([1]; population primary parameter, typical value, mean, MEHP after oral DEHP): 0.252 h⁻¹ | Clearance [1, 5]: 0.00533 mL/min/kg | VSS [1, 5]: 0.37 L/kg | Volume(s) of the peripheral compartment [1, 5]: 0.077 L/kg | half-life [1, 5]: 33 days | CL [2]: 0.00577 mL/min/kg | MRT [2]: 40.5 days | VSS [2]: 0.336 L/kg | VZ [2]: 0.353 L/kg | Serum concentration ([2]; rabbit 1, 0.30 h): 320 nM | Serum concentration ([2]; rabbit 1, 4.38 h): 280 nM | Serum concentration ([2]; rabbit 1, 24.03 h): 260 nM | Serum concentration ([2]; rabbit 2, 0.28 h): 430 nM | Serum concentration ([2]; rabbit 2, 4.05 h): 280 nM | Serum concentration ([2]; rabbit 3, 0.35 h): 380 nM | Serum concentration ([2]; rabbit 3, 4.05 h): 370 nM | Serum concentration ([2]; rabbit 4, 0.62 h): 350 nM | Serum concentration ([2]; rabbit 4, 72.00 h): 290 nM | Serum concentration ([2]; rabbit 5, 0.75 h): 380 nM | Serum concentration ([2]; rabbit 5, 72.03 h): 310 nM | Serum concentration ([2]; rabbit 6, 0.57 h): 360 nM | Serum concentration ([2]; rabbit 6, 71.97 h): 330 nM | Serum concentration ([2]; rabbit 7, 11.98 h): 290 nM | Serum concentration ([2]; rabbit 7, 168.00 h): 270 nM | Serum concentration ([2]; rabbit 8, 12.02 h): 240 nM | Serum concentration ([2]; rabbit 8, 167.92 h): 230 nM | Serum concentration ([2]; rabbit 9, 11.97 h): 310 nM | Serum concentration ([2]; rabbit 9, 168.00 h): 280 nM | Serum concentration ([2]; rabbit 10, 671.96 h): 150 nM | Serum concentration ([2]; rabbit 11, 672.00 h): 160 nM | Serum concentration ([2]; rabbit 12, 671.83 h): 190 nM | AUC0−inf [2]: 330 µM·h | Cmax [2]: 427 nM | half-life [2]: 29.5 days
